Patent US11464751B2, “Use of fluoroethylnormemantine for the prevention and treatment of anxiety” (REST THERAPEUTICS, priority 2017, dated 2022)

Test system: naive rats (Wistar)
Assay: Open-field test with light gradient
Type: in vivo, rat
Experimental: Thus, to test state anxiety, several animal models are commonly used and have been validated by numerous studies: • open field test: This consists of forcibly exposing the animal (rat or mouse) to a new environment and observing its behavior. […] Locomotor activity and behavior are then assessed by recording the number of crossings of the grid lines, the frequency of retreats, the number of entries and the time spent in the central squares. This animal model is considered a good model of “normal” anxiety when adapting to a new environment. It has good predictability of human response to treatment (L. Prut, European Journal of Pharmacology 463 (2003) 3-33). The open-field test is also useful, when it is prolonged (behavioral recording time over 2 hours), as it allows monitoring the motor activity of the animals and thus their state of wakefulness, whereas measurements at short times give information on anxiety. • the light-dark box test: another animal model of anxiety is based on the aversive properties of an open-field space and on the comparison of exploratory activities in a lit compartment and in a dark compartment under the influence of anxiolytic substances (M Bourin, European Journal of Pharmacology 463 (2003) 55-65). This paradigm is based on rodents' innate aversion to bright places and on rodents' spontaneous exploratory behavior in response to stressful environments (new environment or light). The test device is divided into two compartments, one is small, dark and safe, the second is large, bright and stressful. This paradigm allows the prediction of anxiolytic or anxiogenic drug-like activities in mice. Passages between each compartment are a cue of exploration activity, while the time spent in each compartment reflects aversion. Anxiolytics, effective in humans, classic (benzodiazepines) as well as more recent anxiolytic compounds (serotonergic drugs or drugs acting on neuropeptide receptors) can be detected by this animal model which has the advantage of being simple and quick to use. • The open-field test with light gradient: the two models described above can be judiciously coupled in order to check the anxiolytic potential of a molecule, by eliminating the “burrow” effect induced by the presence of the dark compartment.
In the following examples, the effects of memantine, propranolol and fluoroethylnormemantine (FENM, the subject of the present invention) are studied in naive rats (Wistar) subjected to various tests related to depression or anxiety and then compared.
The test substances are administered to rats intraperitoneally in a volume of 5 ml/kg, 30 minutes before the behavioral tests are performed.
The injected solutions contain either of the molecules in the form of one of their salts, a hydrochloride (memantine·HCl and FENM·HCl) for the nitrogen derivatives and as such for propranolol, at the concentrations indicated below in a mixture of 95% (NaCl 0.9% ww in water)/5% ethanol. In each experiment, the dose per kilogram is referenced.
For each paradigm, and each solution tested, 12 rats are subjected to injection and behavioral testing. The control solution is a saline solution.
In this example the light-dark box test was modified by eliminating the compartmentalization of the box and using a high-intensity light gradient (600 lux). As it is based on rodents' innate aversion to light, the increase in time spent in the area closest to the light source is therefore considered to reflect a lower level of anxiety.
The animals are exposed to a 12-minute sequence, broken down into three parts, 4 minutes in darkness (ambient light of 5 lux), 4 minutes in the presence of the light gradient and 4 minutes again in darkness. Displacements are recorded in the same way as for the open-field test. The field of view is divided into 4 zones numbered from 1 to 4 according to the increasing distance from the light source.

**Q.** Which results are given for `NC12CC3CC(C1)CC(CCF)(C3)C2`?
**A.** Percentage of time spent in the area closest to the light source (5 mg/kg i.p., Dark 1 (Habituation)): 32%; Percentage of time spent in the area closest to the light source (5 mg/kg i.p., Dark 2 (Relief)): 30%; Percentage of time spent in the area closest to the light source (5 mg/kg i.p., Light 600 lux (Stress)): 22%; anxiety effect (avoidance of the most strongly illuminated area) (10 mg/kg dose): completely eliminated; Percentage of time spent in the area closest to the light source (10 mg/kg i.p., Dark 1 (Habituation)): 29%; Percentage of time spent in the area closest to the light source (10 mg/kg i.p., Dark 2 (Relief)): 34%; Percentage of time spent in the area closest to the light source (10 mg/kg i.p., Light 600 lux (Stress)): 30%; Percentage of time spent in the area closest to the light source (20 mg/kg i.p., Dark 1 (Habituation)): 39%; Percentage of time spent in the area closest to the light source (20 mg/kg i.p., Dark 2 (Relief)): 29%; Percentage of time spent in the area closest to the light source (20 mg/kg i.p., Light 600 lux (Stress)): 21%
